Reference: patent US5696276A, “Process for preparing 5,8-dihydroxynaphthoquinone derivatives, novel 5,8-dihydroxynaphthoquinone derivatives and their use as anticancer agent” (Kuhnil Pharmaceutical Co., Ltd., priority 1993, dated 1997)
Values after ≈ are worked out from the molar mass of the structure shown.

Assays:
[1] = tested on: A549 cancer cells; test: Cytotoxic activity against A549 cancer cells (sulforhodamin B method); type: cell-based; settings: Homo sapiens; A549 cells, SRB method, 48 hours; read-out: ED50, cytotoxic activity against A549
Description: The cytotoxic activity against A549 cancer cells was determined using a method for measuring sulforhodamin B (SRB), which was developed in the year 1989 by NIC for measuring anticancer activity of the drug in vitro. For the experiment, cells under subculturing were separated from the attached surface with trypsin-CDTA solution and then dispensed into a 24-well flat-bottom microplate (Falcon) so that the number of cells per well is 8×10^4 (A549). The microplate was incubated in a CO2 incubator for 24 hours to attach the dispensed cells to bottom. The medium was removed with aspirator. Then, 100 μl of the solution of the test compounds diluted in a log-dose of 6 kinds of concentration was added to each well containing cells, in a multiple of 3. The microplate was incubated for further 48 hours. In addition, the diluted solution of the test compounds above was filtered through a 0.22 μm filter, before addition to the cells, to keep the experiment under sterilized condition. The cells were incubated with the test compounds for 48 hours and then the medium was removed from each well. 100 μl of 10% trichloroacetic acid (TCA) was added to each well and then the plate was allowed to stand at 4° C. for one hour to fix the cells to the bottom of plate. After fixing the cells, the plate was washed 5 to 6 times with water to completely remove any remaining TCA solution and then dried at room temperature until water is no longer present. To the completely dried plate was added the dying solution of 0.4% SRB dissolved in 1% acetic acid in an amount of 250 μl per well to stain the cells for 30 minutes and then the plate was washed again 5 to 6 times with 1% acetic acid solution to remove the remaining SRB which is not bound to the cells. The stained cell plate was dried again at room temperature. Then, the dying solution was carefully dissolved in a certain amount of 10 mM Tris so that the O.D. value in the control group at 520 nm is 0.8-1.0 Å (optical density), and the optical density at 520nm was determined. The ED50 value was obtained from the determined optical density. To calculate the activity of the drug against cancer cells, the number of cells (Tz) at the beginning of the addition of drug, the number of cells (C) after incubation with the medium in the absence of drug for 48 hours and the number of cells (T) after incubation in the presence of drugs at each concentration for 48 hours were determined.
The anticancer activity of the test compounds was determined form the following equations. Specifically, in the […] the equation (T-Tz)/(C-Tz)×100 was used and in the case of Tz<T the equation (T-Tz)/Tz×100 was used. Then the IC50 value wich is the concentration of drug which inhibits the growth of cancer cells by 50% was calcualted from the above calculated values using a data regressive function of LOTUS programme and the cytotoxic activities of the test compounds were compared with each other.

[2] = tested on: HL-60 cells; test: Cytotoxic activity against HL-60 cells; type: cell-based; settings: Homo sapiens; HL-60 cells, 48 hours, 37° C.; read-out: ED50, cytotoxic activity against HL-60
Description: (§1) As in the test for the cytotoxic activity against L1210 cells, the test samples were dissoved in ethanol or dimethylsulfoxide in a certain concentration. 0.1 ml of the sample solution was mixed with 0.9 ml of a fresh medium to prepare the dilutions. To each two test tubes having a screw cap were added 100, 50, 25 μl, respectively, of the sample dilutions by means of a micropipet. To each test tube for the test group and the control group (2√n: n=number of the samples) was added 5 ml of the dilutions of HL-60 cells and K-562 cells which were cultured and activated before 24 hours from the beginning of experiment and then diluted in a concentration of 1×10^5 cells/mi. All test tubes were cultured for 48 hours in a CO2 incubator at 37° C. and then the number of cells was counted using a haemacytometer.
(§2) The ED50 value is defined as a concentration (μg/ml) of the sample which inhibits the growth of cancer cells by 50% of the control group and determined according to a method described in NIC's mannual (NIC=National Cancer Institue, U.S.A.). The growth rate Y(%) of cells in the presence of the test sample in each concentration was calculated according to the followign equation: […]
(§3) In the above equation, T means the average cell number per ml in the test group after incubation for 48 hours in the presence of the test samples in each concentration, C means the average cell number per ml in the control group after incubation for 48 hours, and Co means the average cell number per ml in the control group at the beginning of incubation. The Y(%) value at each concentration and log10 value of each concentration were obtained and the regression curve was constructed according to the following equation from those obtained values. In this case, when all the Y(%) value obtained at each concentration is greater than 55% or lower than 45%, the experiment was repeatedly conducted.
(§4) To construct the regression curve Y=A+BX the values A and B were obtained using the following equation. [formula]
(§5) In the above, the value N is the number of selected points which is greater than 2 and lower than, or identical with, the number of cencentration of the test sample, Xi is log(concentration) i, and Yi is the growth ratio at (concentration)i. The value of ED50 was obtained for those obtained slope and intercept.

[3] = tested on: S-180 sarcoma cells; test: Animal experiment using Sarcoma S-180 cells (survival of mouse); type: in vivo, male ICR mouse; settings: ip, S-180 ICR mouse, intraperitoneal, 7 to 8 injections; for responders at 10 µmol/kg / responders at 15 µmol/kg: 1200 h, read-out: Number of mouse survived for 50 days (converted); for responders at 10 µmol/kg / response vs control in vivo at 10 µmol/kg: daily dose 10 μmole (mg/kg/day given per compound); for response vs control in vivo at 10 µmol/kg / response vs control in vivo at 15 µmol/kg: read-out: T/C; for responders at 15 µmol/kg / response vs control in vivo at 15 µmol/kg: daily dose 15 μmole (mg/kg/day given per compound)
Description: In this experiment, healthy male ICR mouse weighing 20 to 25 g were used as test animal and were fed with water and feed without any restriction in the chamber controlled at the temperature of 23° to 24° C. As the feed, the antibiotic-free feed for mouse was used.
S-180 cells which were incubated for 7 days within abdominal cavity of ICR mouse were separated together with ascites. To the separated cells was added sterilized cold physiological saline and the mixture was centrifuged with 400×g for 2 minutes to separate the cell precipitate. The separated cell precipitate was suspended again in sterilized cold physiological saline and then centrifuged to remove the supernatant. Only S-180 cells were taken, excluding any red bllod cells incorporated therein, washed three times with the same method as above, and then suspended to obtain the cell suspension in concentration of 10^7 cells/ml by counting the number of cells with a haemacytometer. Each 0.1 ml of this cell suspension was transplanted in an abdominal cavity.
After 24 hours from the transplantation, mouse were divided so that each group contains 8 to 9 mouse. The test sample was dissolved in a predetermined amount of dimethylsulfoxide to prepare the stock solution which was stored at 4° C. 30 μl of the stock solution was taken and then mixed with 1.5 ml of physiological saline. 0.1 ml of this mixture was intraperitoneally injected to the test animal. To the control group, 2% dimethylsulfoxide-physiological saline solution was injected. Meanwhile, doxorubicin which is used as the comparative drug was dissolved in 2% dimethylsulfoxide-physiological saline solution and then injected in an amount of 0.5 mg(titer)/kg. The schedule for injection comprises a total of 7 to 8 injections in the manner that after the transplantation of cancer cells 0.1 ml of the test sample per a day is administered for 2 to 4 days followed by the rest for one day. The survival rate was calculated on the basis of the date on which all of one control group is died (approximately 18 to 20 days). The survival rate (T/C, %) was calculated by the following equation as proposed in NIC's protocol: [formula]

[4] = tested on: L1210 cells; test: Cytotoxic activity against L1210 cells; type: cell-based; settings: Mus musculus; L1210 cells, 48 hours, 37° C.; read-out: ED50, cytotoxic activity against L1210
Description: To obtain L1210 cells in a logarithmic phase for cytotoxic activity test, in a 250 ml Erlenmeyer flask with a screw cap including Fisher medium warmed to 36° to 37° C. L1210 cells were adjusted to a concentration of 2-3×10^5 cells/ml and then cultured, before 24 hours from the beginning of experiment. Then, the culture solution thus obtained was suspended to prepare a L1210 cell suspension having a concentration of about 0.8-1.0×10^6 cells/ml. Test sample was dissoved in ethanol or dimethylsulfoxide in a certain concentration just before the experiment. 0.1 ml of the sample solution was diluted 10 times with 0.9 ml of a fresh medium. To each screw-capped test tube were added 100, 50, 25 μl, respectively, of the sample dilutions and then added 5 ml of the cell suspension (5×10^4 cells/ml) prepared above to use as the test group. To the test tubes for the control group (2√n: n=number of the samples), only 5 ml of the cell suspension was added. All test tubes were cultured for 48 hours in a CO2 incubator at 37° C. and then the number of cells was counted using a haemacytometer.
as §2, §3, §4, §5

[5] = tested on: K-562 cells; test: Cytotoxic activity against K-562 cells; type: cell-based; settings: Homo sapiens; K562 cells, 48 hours, 37° C.; read-out: ED50, cytotoxic activity against K562
Description: as §1, §2, §3, §4, §5

In the case of C=CCCC(=O)OC(CC=C(C)C)C1=CC(=O)c2c(O)ccc(O)c2C1=O (stereo not drawn) [2-[1-(4-pentenoyl)oxy-4-methyl-3-pentenyl]-5,8-dihydroxy-1,4-naphthoquinone], the IC50 [1] is reported as 1 µg/mL (≈ 2.7 µM), the IC50 [2] is reported as 0.5 µg/mL (≈ 1.35 µM) and the responders at 10 µmol/kg [3] is reported as 14.3%. For the same compound, the response vs control in vivo at 10 µmol/kg [3] was 180% and the IC50 [4] was 0.02 µg/mL (≈ 0.054 µM).
CCC=CCC=CCC=CCCCCCCCC(=O)OC(CC=C(C)C)C1=CC(=O)c2c(O)ccc(O)c2C1=O (stereo not drawn) [2-(1-linolenyloxy-4-methyl-3-pentenyl)-5,8-dihydroxy-1,4-naphthoquinone] gave an IC50 [1] greater than 20 µg/mL, an IC50 [2] of 4.8 µg/mL (≈ 8.75 µM) and a responders at 15 µmol/kg [3] of 0%. The response vs control in vivo at 15 µmol/kg [3] was 125% and the IC50 [4] was 1.5 µg/mL (≈ 2.73 µM).
For CCCCCC=CCC=CCCCCCCCC(=O)OC(CC=C(C)C)C1=CC(=O)c2c(O)ccc(O)c2C1=O (stereo not drawn) [2-[1-(9,12-octadecadinoyloxy-4-methyl-3-pentenyl]-5,8-dihydroxy-1,4-naphthoquinone], the IC50 [1] was greater than 20 µg/mL, the IC50 [2] was 12.5 µg/mL (≈ 22.7 µM) and the responders at 15 µmol/kg [3] was 0%. It also gave a response vs control in vivo at 15 µmol/kg [3] of 100% and an IC50 [4] of 5 µg/mL (≈ 9.08 µM).
For CCCCCCCC(=O)OC(CC=C(C)C)C1=CC(=O)c2c(O)ccc(O)c2C1=O (stereo not drawn) [2-(1-n-octanoyloxy-4-methyl-3-pentenyl)-5,8-dihydroxy-1,4-naphthoquinone], the IC50 [1] was 4.3 µg/mL (≈ 10.4 µM), the IC50 [2] was 0.7 µg/mL (≈ 1.69 µM) and the responders at 15 µmol/kg [3] was 22.2%. For the same compound, the response vs control in vivo at 15 µmol/kg [3] was 235% and the IC50 [4] was 0.2 µg/mL (≈ 0.483 µM).
For CC(C)=CCC(OC(=O)Cc1ccccc1)C1=CC(=O)c2c(O)ccc(O)c2C1=O (stereo not drawn) [2-(1-phenylacetyloxy-4-methyl-3-pentenyl)-5,8-dihydroxy-1,4-naphthoquinone], the IC50 [1] was 1.1 µg/mL (≈ 2.71 µM), the IC50 [2] was 0.4 µg/mL (≈ 0.984 µM) and the responders at 10 µmol/kg [3] was 0%. For the same compound, the response vs control in vivo at 10 µmol/kg [3] was 183% and the IC50 [4] was 0.1 µg/mL (≈ 0.246 µM).
In the case of COc1ccc(OC)c2c1C(=O)C=C(C(O)CCC(C)C)C2=O (stereo not drawn) [2-(1-hydroxy-4-methylpentyl)-5,8-dimethoxy-1,4-naphthoquinone], the IC50 [1] is reported as 2.2 µg/mL (≈ 6.91 µM), the IC50 [5] is reported as 0.9 µg/mL (≈ 2.83 µM) and the responders at 10 µmol/kg [3] is reported as 0%. It also gave a response vs control in vivo at 10 µmol/kg [3] of 120% and an IC50 [4] of 0.02 µg/mL (≈ 0.0628 µM).
